Results reported in patent US11040981B2, “Pyrrolotriazine compounds and methods of inhibiting TAM kinases” (Syros Pharmaceuticals, Inc., priority 2017, dated 2021).

Assays:
AXL = molecular target: T1, AXL (Homo sapiens, UniProt P30530); assay: TR-FRET kinase activity assay, AXL; type: biochemical; details: ATP at Km, 60 minutes
T1 sequence (P30530 26-894): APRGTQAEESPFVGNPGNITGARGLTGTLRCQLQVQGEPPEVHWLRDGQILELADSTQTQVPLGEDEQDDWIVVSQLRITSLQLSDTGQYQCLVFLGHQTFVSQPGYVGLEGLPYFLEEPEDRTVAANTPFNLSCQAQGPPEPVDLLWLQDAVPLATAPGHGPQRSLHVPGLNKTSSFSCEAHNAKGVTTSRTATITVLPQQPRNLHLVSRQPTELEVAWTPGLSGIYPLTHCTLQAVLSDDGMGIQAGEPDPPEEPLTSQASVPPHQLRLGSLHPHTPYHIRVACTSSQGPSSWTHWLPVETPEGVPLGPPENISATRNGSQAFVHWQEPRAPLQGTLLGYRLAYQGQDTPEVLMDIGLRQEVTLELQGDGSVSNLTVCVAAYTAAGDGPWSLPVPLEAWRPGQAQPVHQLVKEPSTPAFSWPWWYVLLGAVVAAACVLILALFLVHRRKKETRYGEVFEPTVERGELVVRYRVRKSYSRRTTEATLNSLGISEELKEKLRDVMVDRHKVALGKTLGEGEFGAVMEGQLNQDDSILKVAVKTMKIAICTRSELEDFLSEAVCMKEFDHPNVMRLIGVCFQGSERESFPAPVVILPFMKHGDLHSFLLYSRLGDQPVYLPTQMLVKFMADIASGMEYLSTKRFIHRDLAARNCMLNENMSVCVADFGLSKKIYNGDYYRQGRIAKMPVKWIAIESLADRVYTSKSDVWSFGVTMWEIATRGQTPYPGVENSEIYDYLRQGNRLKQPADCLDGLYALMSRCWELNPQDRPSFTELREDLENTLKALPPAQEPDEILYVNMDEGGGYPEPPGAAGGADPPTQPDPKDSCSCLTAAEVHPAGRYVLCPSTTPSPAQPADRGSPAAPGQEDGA
Summary of the method: (§1)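 Inhibition is measured as loss of phospho-peptide formation: kinase, fluorescent tyrosine peptide and compound are combined, ATP is added at Km, and the reaction proceeds 60 min at RT in pH 7.5 HEPES buffer. An EDTA stop and Eu-labelled phospho-specific antibody allow TR-FRET detection for IC50 fitting.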

TYRO3 = molecular target: T2, TYRO3 (Homo sapiens, UniProt Q06418); assay: TR-FRET kinase activity assay, TYRO3; type: biochemical; details: ATP at Km, 60 minutes
T2 sequence (Q06418 41-890): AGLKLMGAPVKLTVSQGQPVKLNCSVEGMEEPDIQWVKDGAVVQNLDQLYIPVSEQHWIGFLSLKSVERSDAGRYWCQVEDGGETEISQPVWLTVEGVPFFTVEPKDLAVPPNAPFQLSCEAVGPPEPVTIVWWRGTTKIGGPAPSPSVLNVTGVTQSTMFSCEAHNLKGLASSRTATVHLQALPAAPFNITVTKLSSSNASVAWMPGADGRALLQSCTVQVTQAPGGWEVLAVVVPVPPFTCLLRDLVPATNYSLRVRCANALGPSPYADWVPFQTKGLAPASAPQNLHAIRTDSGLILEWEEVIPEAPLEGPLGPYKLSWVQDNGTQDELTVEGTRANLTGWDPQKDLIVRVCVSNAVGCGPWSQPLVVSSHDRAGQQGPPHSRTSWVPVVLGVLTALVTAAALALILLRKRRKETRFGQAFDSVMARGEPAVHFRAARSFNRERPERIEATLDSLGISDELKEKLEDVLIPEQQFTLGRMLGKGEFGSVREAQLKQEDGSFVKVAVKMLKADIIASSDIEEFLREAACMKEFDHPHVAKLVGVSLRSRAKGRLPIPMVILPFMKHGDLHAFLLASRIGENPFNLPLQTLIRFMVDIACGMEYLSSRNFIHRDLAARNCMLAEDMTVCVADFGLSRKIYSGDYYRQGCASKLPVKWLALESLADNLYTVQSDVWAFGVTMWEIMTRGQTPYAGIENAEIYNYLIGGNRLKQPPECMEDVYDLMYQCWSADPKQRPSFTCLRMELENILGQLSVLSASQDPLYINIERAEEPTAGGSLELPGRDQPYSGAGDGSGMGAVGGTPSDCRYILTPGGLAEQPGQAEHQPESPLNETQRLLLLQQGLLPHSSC
Summary of the method: as §1

| Compound | IC50 (AXL) [nM] | IC50 (TYRO3) [nM] |
| --- | --- | --- |
| COC[C@H](C)Nc1ncc2c(C3=CCOCC3)cc([C@H]3CC[C@H](O)CC3)n2n1 [Compound 141] | ≤ 100 | ≤ 100 |
| COC[C@H](C)Nc1ncc2c(-c3cnn(C4COC4)c3)cc([C@@H]3CC[C@H](O)C(C)(C)C3)n2n1 [Compound 571] | 100 to 1000 | ≤ 100 |
| COCC(C)Nc1ncc2c(-c3ccc4ocnc4c3)cc(C3CCC(O)CC3)n2n1 (stereo not shown) [Compound 550] | ≤ 100 | ≤ 100 |
| CC[C@]1(O)CC[C@H](c2cc(-c3ccnc(N4CCOCC4)c3)c3cnc(N[C@@H](C)COC)nn32)CC1 [Compound 568] | ≤ 100 | ≤ 100 |
| COC[C@H](C)Nc1ncc2c(-c3cnn(C4COC4)c3)cc(C3CCC(F)(F)CC3)n2n1 [Compound 515] | 100 to 1000 | ≤ 100 |
| COCC(C)Nc1ncc2c(-c3ccc4cc[nH]c4c3)cc(C3CCC(O)CC3)n2n1 (stereo not shown) [Compound 538] | 100 to 1000 | ≤ 100 |
| COC[C@H](C)Nc1ncc2c(-c3cnn(C4COC4)c3)cc(-c3cccc(O)c3)n2n1 [Compound 511] | 1000 to 10000 | ≤ 100 |
| C[C@@H](CC(F)(F)F)Nc1ncc2c(-c3ccnc([S@](C)(=N)=O)c3)cc([C@H]3CC[C@H](O)CC3)n2n1 [Compound 580] | ≤ 100 | ≤ 100 |
| C[C@@H](Nc1ncc2c(-c3cnn(C4COC4)c3)cc([C@H]3CC[C@H](O)CC3)n2n1)C(F)(F)F [Compound 527] | 100 to 1000 | ≤ 100 |
| COC[C@H](C)Nc1ncc2c(-c3cnn(C(C)(C)C(=O)N4CCO[C@@H](C(C)(C)O)C4)c3)cc([C@H]3CC[C@H](O)CC3)n2n1 [Compound 585] | ≤ 100 | ≤ 100 |
| COC[C@H](C)Nc1ncc2c(-c3cnn(C(C)(C)C(=O)N4CCOCC4)c3)cc([C@H]3CC[C@@](C)(O)CC3)n2n1 [Compound 561] | ≤ 100 | ≤ 100 |
| COC[C@H](C)Nc1ncc2c(-c3cnn(C(C)(C)C(=O)N4CCOC(C(C)(C)O)C4)c3)cc([C@H]3CC[C@H](O)CC3)n2n1 (stereo partly shown) [Compound 586] | ≤ 100 | ≤ 100 |
| COC[C@H](C)Nc1ncc2c(-c3ccnc(N4CCc5cnn(C)c5C4)c3)cc([C@H]3CC[C@H](O)CC3)n2n1 [Compound 518] | ≤ 100 | ≤ 100 |
| C[C@@H](COC(F)F)Nc1ncc2c(-c3cnn(C(C)(C)C(=O)N4CCN(C)CC4)c3)cc([C@H]3CC[C@H](O)CC3)n2n1 [Compound 593] | ≤ 100 | ≤ 100 |
| COC[C@H](C)Nc1ncc2c([C@H]3CC[C@H](C(C)=O)CC3)cc([C@H]3CC[C@H](O)CC3)n2n1 [Compound 576] | 100 to 1000 | ≤ 100 |
| Cc1nnc(C(C)(C)n2cc(-c3cc([C@H]4CC[C@H](O)CC4)n4nc(N[C@@H](C)COC(F)F)ncc34)cn2)o1 [Compound 517] | ≤ 100 | ≤ 100 |
| CC(Nc1ncc2c(-c3cnn(C4COC4)c3)cc(C3CCC(O)CC3)n2n1)c1cccnc1 (racemic) [Compound 536] | 100 to 1000 | ≤ 100 |
| COC[C@H](C)Nc1ncc2c(-c3cnn(C4COC4)c3)cc([C@@H]3CC[C@H](O)[C@@H](C)C3)n2n1 [Compound 588] | 100 to 1000 | ≤ 100 |
| COC[C@H](C)Nc1ncc2c(-c3cnn(C4COC4)c3)cc(C3CCSCC3)n2n1 [Compound 522] | 100 to 1000 | ≤ 100 |
| COC[C@H](C)Nc1ncc2c(-c3ccnc(N4CCOCC4)c3)cc([C@H]3CC[C@@](C)(O)CC3)n2n1 [Compound 548] | ≤ 100 | ≤ 100 |
| COC[C@H](C)Nc1ncc2c(-c3ccnc(C4COC4)c3)cc([C@H]3CC[C@H](O)CC3)n2n1 [Compound 566] | ≤ 100 | ≤ 100 |

| Compound | IC50 (AXL) [nM] | IC50 (TYRO3) [nM] |
| --- | --- | --- |
| COC[C@H](C)Nc1ncc2c(-c3ccnc(N4CCO[C@H](C(C)(C)O)C4)c3)cc([C@H]3CC[C@H](O)CC3)n2n1 [Compound 558] | ≤ 100 | ≤ 100 |
| CCN(C(=O)N1CCN(c2cc(-c3cc([C@H]4CC[C@H](O)CC4)n4nc(N[C@@H](C)COC)ncc34)ccn2)CC1)C(C)C [Compound 514] | ≤ 100 | ≤ 100 |
| CC(Cc1ccc(F)cc1)Nc1ncc2c(-c3cnn(C4COC4)c3)cc(C3CCC(O)CC3)n2n1 (racemic) [Compound 535] | ≤ 100 | ≤ 100 |
| C[C@H](Nc1ncc2c(-c3cnn(C4COC4)c3)cc([C@H]3CC[C@H](O)CC3)n2n1)C(F)(F)F [Compound 510] | 100 to 1000 | ≤ 100 |
| COC[C@H](C)Nc1ncc2c(-c3cnn(C(C)(C)c4nnc(C5CC5)o4)c3)cc([C@H]3CC[C@H](O)CC3)n2n1 [Compound 563] | ≤ 100 | ≤ 100 |
| COC[C@H](C)Nc1ncc2c(-c3cncc([S@@](C)(=N)=O)c3)cc([C@H]3CC[C@H](O)CC3)n2n1 [Compound 573] | 100 to 1000 | ≤ 100 |
| COC[C@H](C)Nc1ncc2c(-c3cncc([S@](C)(=N)=O)c3)cc([C@H]3CC[C@@H](O)CC3)n2n1 [Compound 572] | 100 to 1000 | ≤ 100 |
| CC(C)(O)C1CN(c2cc(-c3cc([C@H]4CC[C@H](O)CC4)n4nc(NCCOC(F)F)ncc34)ccn2)CCO1 (stereo partly shown) [Compound 557] | ≤ 100 | ≤ 100 |
| COCC(C)Nc1ncc2c(-c3cccc(N4CCOCC4)c3)cc(C3CCC(O)CC3)n2n1 (stereo not shown) [Compound 562] | ≤ 100 | ≤ 100 |
| COC[C@H](C)Nc1ncc2c(-c3ccc([S@@](C)(=N)=O)nc3)cc([C@H]3CC[C@H](O)CC3)n2n1 [Compound 533] | ≤ 100 | ≤ 100 |
| COCC(C)Nc1ncc2c(-c3cnn(C4COC4)c3)cc(C3CCNC(=O)C3)n2n1 (mixture of isomers) [Compound 592] | 1000 to 10000 | ≤ 100 |
| COC[C@H](C)Nc1ncc2c(-c3cnn(C4COC4)c3)cc(C3CCC(=O)NC3)n2n1 (stereo partly shown) [Compound 526] | 1000 to 10000 | ≤ 100 |
| COC[C@H](C)Nc1ncc2c(-c3cnn(C4COC4)c3)cc([C@@H]3CC[C@H](O)[C@H](C)C3)n2n1 [Compound 587] | ≤ 100 | ≤ 100 |
| COC[C@H](C)Nc1ncc2c(-c3ccnc(N4CCOCC4)c3)cc([C@H]3CC[C@@H](O)CC3)n2n1 [Compound 546] | ≤ 100 | ≤ 100 |
| COC[C@H](C)Nc1ncc2c(-c3cnn(C4COC4)c3)cc([C@H]3CC[C@@H](O)CC3)n2n1 [Compound 564] | ≤ 100 | ≤ 100 |
| C[C@@H](CC(F)(F)F)Nc1ncc2c(-c3cncc([S@](C)(=N)=O)c3)cc([C@H]3CC[C@H](O)CC3)n2n1 [Compound 582] | ≤ 100 | ≤ 100 |
| COCC(C)Nc1ncc2c(-c3ccc4[nH]cnc4c3)cc(C3CCC(O)CC3)n2n1 (stereo not shown) [Compound 553] | ≤ 100 | ≤ 100 |
| C[C@H](Nc1ncc2c(-c3cnn(C(C)(C)C(=O)N4CCOCC4)c3)cc([C@H]3CC[C@H](O)CC3)n2n1)C(F)(F)F [Compound 537] | ≤ 100 | ≤ 100 |
| COC[C@H](C)Nc1ncc2c(-c3cnn(C(C)(C)C(=O)N4CCOCC4)c3)cc([C@@H]3CCc4cn[nH]c4C3)n2n1 [Compound 594] | ≤ 100 | ≤ 100 |
| C[C@@H](COC(F)F)Nc1ncc2c(-c3ccc(S(C)(=O)=O)nc3)cc([C@H]3CC[C@H](O)CC3)n2n1 [Compound 513] | ≤ 100 | ≤ 100 |
